{
  "source": "patent US8394398B2",
  "about": "(Abbott Laboratories, priority 1997, dated 2013)",
  "assay_type_in_all_cases": "cell-based",
  "key": {"[1]": {"system": "human coronary artery endothelial cells (hCaEC)", "assay": "3H-thymidine uptake proliferation assay, hCaEC", "conditions": "Homo sapiens, Endothelial cell, 3 h; read-out: hCaEC IC50 Mean ± SEM"}, "[2]": {"system": "human coronary artery smooth muscle cells (hCaSMC)", "assay": "3H-thymidine uptake proliferation assay, hCaSMC", "conditions": "Homo sapiens, 3 h; read-out: hCaSMC IC50 Mean ± SEM", "procedure": "Experiments were performed to investigate interactions between zotarolimus and the corticosteroid dexamethasone. The effect of dexamethasone on the antiproliferative activity of zotarolimus in human coronary artery smooth muscle ([…]) and endothelial […] determined using an in vitro proliferation assay. The proliferation and migration of vascular smooth muscle cells into the vascular neointima is a characteristic pathologic response seen in restenotic lesions (A. Lafont and P. Libby, The smooth muscle cell: sinner or saint in restenosis and the acute coronary syndromes? […] As a result, in vitro assays which specifically measure the antiproliferative activity of candidate anti-restenotic compounds on human coronary artery smooth muscle and endothelial cells should predict potential anti-restenotic activity in vivo. The tritium incorporation assay is an accurate and sensitive method used in the art to determine cell number and proliferation. Compounds or combinations of compounds which attenuate growth factor-mediated human coronary artery smooth muscle cell […]) proliferation, as measured by the tritium incorporation assay in vitro, are candidate anti-restenotic agents. […] Cell proliferation was monitored by following incorporation of ^3H-thymidine into newly synthesized DNA of cells stimulated by serum and growth factors. Exponentially growing […] were seeded into 96-well flat bottom tissue culture plates at 5,000 cells/well (10,000 cells/well for […]). The cells were allowed to attach overnight. The growth medium was removed the following day and cells were washed twice with unsupplemented (basal) medium to remove traces of serum and growth factors. Basal medium (200 μl) was added to each well and the cells incubated in medium lacking growth factors and serum to starve and synchronize them in the G0 state. After starvation (48 hours for […] and 39 hours for […]) in medium lacking serum and growth factors, the cells were replenished with 200 μl supplemented medium in the absence or presence of drugs at the desired concentrations. […] After a 72-hour incubation period, 25 μl (1 μCi/well) of ^3H-thymidine (Amersham Biosciences) were added to each well. The cells were incubated at 37° C. for 16-18 hours to allow incorporation of ^3H-thymidine into newly synthesized DNA and the cells harvested onto 96-well plates containing bonded glass fiber filters using a cell harvester (Harvester 9600, TOMTEC). […] Controls included medium only, starved cells and cells in complete medium. Drug activity was established by determining the inhibition of ^3H-thymidine incorporation into newly synthesized DNA relative to cells grown in complete medium. […] The final IC50s are means of the 3-4 experiments. In these experiments, the x-axis represents the concentration of the drug being varied. For most of these curves that is zotarolimus alone and in combination with a fixed concentration of dexamethasone. Each graph contains a dexamethasone alone curve and a zotarolimus alone curve. The set of curves in each graph is generated by adding dexamethasone at a fixed concentration (1, 5, 10 or 25 nM) to various concentrations of zotarolimus (0, 0.04, 0.08, 0.8, 4, 8, 40 nM). Each curve represents the dose-response of zotarolimus (whose concentration is given on the x-axis) in the presence of the fixed concentration of dexamethasone given in the legend). […] The concentration eliciting a specific antiproliferative effect was determined using a 4-parameter equation (Equation 1). […]"}, "[3]": {"system": "human coronary artery smooth muscle cells (hCaSMC)", "assay": "cytokine production by TNFα-treated human coronary artery smooth muscle cells (ELISA)", "conditions": "hCaSMC, TNFα (5 ng/ml), 24 hours", "procedure": "(§1) Experiments were performed to determine the effects of zotarolimus, sirolimus and dexamethasone on the production of TNFα, IL-6 and MCP-1 by activated human monocytes In addition to monocytes and macrophages two other key cell types are involved in the etiology of restenosis, arterial smooth muscle and endothelial cells. These cells are activated and produce cytokines in response to TNFα. […] The activation of cytokine production by human coronary artery smooth muscle and endothelial cells following TNFα treatment was determined by measuring interleukine-8 (IL-8), MCP-1 and IL-6 production. As shown by the results of the experiments described below, the ability of these compounds to inhibit the production of cytokines supports their use in combination as anti-restenotic agents since these cytokines play a role in the development of restenosis. […] After 24 hours, the supernatants were carefully collected and TNFα, IL-6 and MCP-1 levels determined by ELISA. Primary cultures of human coronary artery endothelial and smooth muscle cells were obtained from Cambrex and maintained as described by the vendor. […] After 24 hours the supernatants were removed and replaced with media containing TNFα (5 ng/ml) in the presence and absence of various concentrations of zotarolimus, dexamethasone or sirolimus. The cells were incubated for 24 hours and the supernatants carefully removed and frozen until measurement. Cytokine levels were measured in the supernatants by sandwich ELISA."}, "[4]": {"system": "human monocytes", "assay": "cytokine production by LPS-stimulated human monocytes (ELISA)", "procedure": "as §1"}},
  "data": [
    {"smiles": "CO[C@H]1C[C@@H]2CC[C@@H](C)[C@@](O)(O2)C(=O)C(=O)N2CCCC[C@H]2C(=O)O[C@H]([C@H](C)C[C@@H]2CC[C@H](n3cnnn3)[C@H](OC)C2)CC(=O)[C@H](C)/C=C(\\C)[C@@H](O)[C@@H](OC)C(=O)[C@H](C)C[C@H](C)/C=C/C=C/C=C/1C", "note": "[zotarolimus]", "values": [
      {"measurement": "IC50", "setting": "[1]", "result": "3.2 ± 0.5", "unit": "nM"},
      {"measurement": "IC50", "setting": "[2]", "result": "6.2 ± 1.2", "unit": "nM"},
      {"measurement": "Maximal Inhibitory Activity, IL-6", "setting": "[3]", "result": "− (− indicates maximal inhibitory activity less than 50% of control)"},
      {"measurement": "Maximal Inhibitory Activity, Il-8", "setting": "[3]", "result": "− (− indicates maximal inhibitory activity less than 50% of control)"},
      {"measurement": "Maximal Inhibitory Activity, MCP-1", "setting": "[3]", "result": "− (− indicates maximal inhibitory activity less than 50% of control)"},
      {"measurement": "MCP-1 production by human monocytes in vitro", "setting": "[4]; FIG. 10", "result": "dose-dependently inhibit MCP-1 production"},
      {"measurement": "production of TNFα and IL-6 by human monocytes", "setting": "[4]; FIGS. 10 and 11", "result": "not demonstrated"},
      {"measurement": "Maximal Inhibitory Activity, IL-6", "setting": "[4]; Monocytes, 24 hours", "result": "− (− indicates maximal inhibitory activity less than 50% of control)"},
      {"measurement": "Maximal Inhibitory Activity, MCP-1", "setting": "[4]; Monocytes, 24 hours", "result": "+++ (+++ indicates maximal inhibitory activity of 75-100% of control)"},
      {"measurement": "Maximal Inhibitory Activity, TNF", "setting": "[4]; Monocytes, 24 hours", "result": "− (− indicates maximal inhibitory activity less than 50% of control)"}
    ]}
  ]
}
